Results as given in PubChem BioAssay (NCI).
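GI50 is the concentration that inhibits growth by half. TGI: concentration producing complete growth inhibition.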

Tests used:
Assay in all cases: NCI anticancer screen, dose series, 384-well format
OVCAR-5 ovarian = test system: OVCAR-5 ovarian
MDA-MB-231 breast = test system: MDA-MB-231 breast
HCC-2998 colon = test system: HCC-2998 colon
SK-MEL-28 melanoma = test system: SK-MEL-28 melanoma
NCI-H322M lung = test system: NCI-H322M lung
M14 melanoma = test system: M14 melanoma
NCI-H23 lung = test system: NCI-H23 lung
TK-10 renal = test system: TK-10 renal
A498 renal = test system: A498 renal
CAKI-1 renal = test system: CAKI-1 renal
MCF7 breast = test system: MCF7 breast
SNB-75 CNS = test system: SNB-75 CNS
SK-MEL-5 melanoma = test system: SK-MEL-5 melanoma
HCT-116 colon = test system: HCT-116 colon
NCI-H522 lung = test system: NCI-H522 lung
SF-295 CNS = test system: SF-295 CNS
RPMI-8226 leukemia = test system: RPMI-8226 leukemia
SK-OV-3 ovarian = test system: SK-OV-3 ovarian
KM12 colon = test system: KM12 colon
MDA-MB-435 melanoma = test system: MDA-MB-435 melanoma
HL-60(TB) leukemia = test system: HL-60(TB) leukemia
UACC-257 melanoma = test system: UACC-257 melanoma
EKVX NSCLC = test system: EKVX NSCLC
NCI-H460 NSCLC = test system: NCI-H460 NSCLC
LOX IMVI melanoma = test system: LOX IMVI melanoma
PC-3 prostate = test system: PC-3 prostate
A549 NSCLC = test system: A549 NSCLC
MOLT-4 leukemia = test system: MOLT-4 leukemia
NCI-H226 lung = test system: NCI-H226 lung
MALME-3M melanoma = test system: MALME-3M melanoma
RXF 393 renal = test system: RXF 393 renal
SN12C renal = test system: SN12C renal
DU-145 prostate = test system: DU-145 prostate
SNB-19 CNS = test system: SNB-19 CNS
BT-549 breast = test system: BT-549 breast
SF-268 CNS = test system: SF-268 CNS
SR leukemia = test system: SR leukemia
HOP-62 NSCLC = test system: HOP-62 NSCLC
HS 578T breast = test system: HS 578T breast
OVCAR-8 ovarian = test system: OVCAR-8 ovarian
U251 glioblastoma = test system: U251 glioblastoma
T-47D breast = test system: T-47D breast
NCI/ADR-RES ovarian = test system: NCI/ADR-RES ovarian
HOP-92 NSCLC = test system: HOP-92 NSCLC
SF-539 CNS = test system: SF-539 CNS
OVCAR-3 ovarian = test system: OVCAR-3 ovarian
OVCAR-4 ovarian = test system: OVCAR-4 ovarian
HCT-15 colon = test system: HCT-15 colon
ACHN renal = test system: ACHN renal
IGROV1 ovarian = test system: IGROV1 ovarian
MDA-MB-468 breast = test system: MDA-MB-468 breast
HT29 colon = test system: HT29 colon
UACC-62 melanoma = test system: UACC-62 melanoma
COLO 205 colon = test system: COLO 205 colon

Cc1c(Cn2c(C)nc3c(C(=O)O)cc(N4CCOCC4)cc32)cccc1C(F)(F)F
GI50 (OVCAR-5 ovarian): 52.4 µM | TGI (OVCAR-5 ovarian): > 100 µM | GI50 (MDA-MB-231 breast): 97.2 µM | TGI (MDA-MB-231 breast): > 100 µM | GI50 (HCC-2998 colon): 45.2 µM | TGI (HCC-2998 colon): > 100 µM | GI50 (SK-MEL-28 melanoma): > 100 µM | TGI (SK-MEL-28 melanoma): > 100 µM | GI50 (NCI-H322M lung): 60.9 µM | TGI (NCI-H322M lung): > 100 µM | GI50 (M14 melanoma): 30.1 µM | TGI (M14 melanoma): > 100 µM | GI50 (NCI-H23 lung): 85.8 µM | TGI (NCI-H23 lung): > 100 µM | GI50 (TK-10 renal): 35.2 µM | TGI (TK-10 renal): > 100 µM | GI50 (A498 renal): 0.462 µM | TGI (A498 renal): 8.29 µM | GI50 (CAKI-1 renal): 57.7 µM | TGI (CAKI-1 renal): > 100 µM | GI50 (MCF7 breast): 59.9 µM | TGI (MCF7 breast): > 100 µM | GI50 (SNB-75 CNS): 63.4 µM | TGI (SNB-75 CNS): > 100 µM | GI50 (SK-MEL-5 melanoma): 18 µM | TGI (SK-MEL-5 melanoma): 57.8 µM | GI50 (HCT-116 colon): 38.2 µM | TGI (HCT-116 colon): > 100 µM | GI50 (NCI-H522 lung): 75.6 µM | TGI (NCI-H522 lung): > 100 µM | GI50 (SF-295 CNS): 22.2 µM | TGI (SF-295 CNS): > 100 µM | GI50 (RPMI-8226 leukemia): 46.7 µM | TGI (RPMI-8226 leukemia): > 100 µM | GI50 (SK-OV-3 ovarian): 61.8 µM | TGI (SK-OV-3 ovarian): > 100 µM | GI50 (KM12 colon): 73 µM | TGI (KM12 colon): > 100 µM | GI50 (MDA-MB-435 melanoma): 75 µM | TGI (MDA-MB-435 melanoma): > 100 µM | GI50 (HL-60(TB) leukemia): 18.3 µM | TGI (HL-60(TB) leukemia): > 100 µM | GI50 (UACC-257 melanoma): 56.3 µM | TGI (UACC-257 melanoma): > 100 µM | GI50 (EKVX NSCLC): 58.1 µM | TGI (EKVX NSCLC): > 100 µM | GI50 (NCI-H460 NSCLC): 33.9 µM | TGI (NCI-H460 NSCLC): > 100 µM | GI50 (LOX IMVI melanoma): 33.1 µM | TGI (LOX IMVI melanoma): > 100 µM | GI50 (PC-3 prostate): 26.9 µM | TGI (PC-3 prostate): > 100 µM | GI50 (A549 NSCLC): 62.1 µM | TGI (A549 NSCLC): > 100 µM | GI50 (MOLT-4 leukemia): 19.6 µM | TGI (MOLT-4 leukemia): 41.4 µM | GI50 (NCI-H226 lung): 64.9 µM | TGI (NCI-H226 lung): > 100 µM | GI50 (MALME-3M melanoma): > 100 µM | TGI (MALME-3M melanoma): > 100 µM | GI50 (RXF 393 renal): 14.6 µM | TGI (RXF 393 renal): > 100 µM | GI50 (SN12C renal): 30.6 µM | TGI (SN12C renal): > 100 µM | GI50 (DU-145 prostate): 52.1 µM | TGI (DU-145 prostate): > 100 µM | GI50 (SNB-19 CNS): 89.1 µM | TGI (SNB-19 CNS): > 100 µM | GI50 (BT-549 breast): 67.4 µM | TGI (BT-549 breast): > 100 µM | GI50 (SF-268 CNS): 70.6 µM | TGI (SF-268 CNS): > 100 µM | GI50 (SR leukemia): 18.5 µM | TGI (SR leukemia): 40.8 µM | GI50 (HOP-62 NSCLC): 24.5 µM | TGI (HOP-62 NSCLC): > 100 µM | GI50 (HS 578T breast): 82.8 µM | TGI (HS 578T breast): > 100 µM | GI50 (OVCAR-8 ovarian): 44.1 µM | TGI (OVCAR-8 ovarian): > 100 µM | GI50 (U251 glioblastoma): 48.8 µM | TGI (U251 glioblastoma): > 100 µM | GI50 (T-47D breast): > 100 µM | TGI (T-47D breast): > 100 µM | GI50 (NCI/ADR-RES ovarian): 3.1 µM | TGI (NCI/ADR-RES ovarian): 11.1 µM | GI50 (HOP-92 NSCLC): 72.7 µM | TGI (HOP-92 NSCLC): > 100 µM | GI50 (SF-539 CNS): 54 µM | TGI (SF-539 CNS): > 100 µM | GI50 (OVCAR-3 ovarian): 39.3 µM | TGI (OVCAR-3 ovarian): > 100 µM | GI50 (OVCAR-4 ovarian): 31.8 µM | TGI (OVCAR-4 ovarian): > 100 µM | GI50 (HCT-15 colon): 3.97 µM | TGI (HCT-15 colon): > 100 µM | GI50 (ACHN renal): 20.8 µM | TGI (ACHN renal): > 100 µM | GI50 (IGROV1 ovarian): 64.4 µM | TGI (IGROV1 ovarian): > 100 µM | GI50 (MDA-MB-468 breast): 49.2 µM | TGI (MDA-MB-468 breast): > 100 µM | GI50 (HT29 colon): 54.7 µM | TGI (HT29 colon): > 100 µM | GI50 (UACC-62 melanoma): 75.8 µM | TGI (UACC-62 melanoma): > 100 µM | GI50 (COLO 205 colon): 99.8 µM | TGI (COLO 205 colon): > 100 µM
